Entries after “also recorded” stand apart in the source; their conditions may differ.
How the values were obtained:
[1] = test system: Caco-2; test: Cellular uptake of [3H][Dmt1]DALDA into cell monolayers; assay type: cell-based, human
Method: (§1) The cellular uptake of [^3H][Dmt^1]DALDA was studied using a human intestinal epithelial cell line (Caco-2), and confirmed with SH-SY5Y (human neuroblastoma cell), HEK293 (human embryonic kidney cell) and CRFK cells (kidney epithelial cell). Monolayers of cells were grown on 12-well plates (5×10^5 cells/well) coated with collagen for 3 days. On day 4, cells were washed twice with pre-wanned HBSS, and then incubated with 0.2 ml of HBSS containing either 250 nM [^3H][Dmt^1]DALDA at 37° C. or 4° C. for various times up to 1 h.
In a separate experiment, cells were incubated with a range of [Dmt^1]DALDA concentrations (1 μM-3 mM) for 1 h at 37° C. At the end of the incubation period, cells were washed 4 times with HBSS, and 0.2 ml of 0.1N NaOH with 1% SDS was added to each well. The cell contents were then transferred to scintillation vials and radioactivity counted. To distinguish between internalized radioactivity from surface-associated radioactivity, an acid-wash step was included. Prior to cell lysis, cells were incubated with 0.2 ml of 0.2 M acetic acid/0.05 M NaCl for 5 min on ice.

[2] = test system: HEK293; test: Cellular uptake of [3H][Dmt1]DALDA, confirmation; assay type: cell-based, human
Method: as §1

[3] = test system: SH-SY5Y; test: Cellular uptake of [3H][Dmt1]DALDA, confirmation; assay type: cell-based, human
Method: as §1

[4] = test system: CRFK cells; test: Cellular uptake of [3H][Dmt1]DALDA, confirmation; assay type: cell-based
Method: as §1

[5] = test system: isolated mouse liver mitochondria; test: Uptake into isolated mitochondria (fluorescence quenching, radioactivity in pellet); assay type: in vitro ADME
Method: (FIG. 1A) Mitochondrial uptake of SS-19 was determined using fluorescence spectrophotometry (ex/em=320/420 nm). […] Pretreatment of mitochondria with FCCP (1.5 μM) reduced quenching by <20% (black line). […] Uptake was stopped by centrifugation (16000×g) for 5 min at 4° C., and radioactivity determined in the pellet. […] Data are shown as mean±s.e.; n=3. *, P<0.05 by Student's t-test. […] Black line, TMRM; red line, SS-19.
To isolate mitochondria from mouse liver, mice were sacrificed by decapitation. The liver was removed and rapidly placed into chilled liver homogenization medium. The liver was finely minced using scissors and then homogenized by hand using a glass homogenizer.
The homogenate was centrifuged for 10 min at 1000×g at 4° C. The supernatant was aspirated and transferred to polycarbonate tubes and centrifuged again for 10 min. at 3000×g, 4° C. The resulting supernatant was removed, and the fatty lipids on the side-wall of the tube were carefully wiped off.
The pellet was resuspended in liver homogenate medium and the homogenization repeated twice. The final purified mitochondrial pellet was resuspended in medium. Protein concentration in the mitochondrial preparation was determined by the Bradford procedure.
Approximately 1.5 mg mitochondria in 400 μl buffer was incubated with [^3H][Dmt^1]DALDA for 5-30 min at 37° C. The mitochondria were then centrifuged down and the amount of radioactivity determined in the mitochondrial fraction and buffer fraction. […] Thus [Dmt^1]DALDA is concentrated in mitochondria.
Thus uptake of [Dmt^1, AtnDap^4]DALDA was not potential-dependent.
To confirm that the mitochondrial targeting was not an artifact of the fluorophore, we also examined mitochondrial uptake of [^3H][Dmt^1]DALDA. Isolated mitochondria were incubated with [^3H][Dmt^1]DALDA and radioactivity determined in the mitochondrial pellet and supernatant.
We next examined the effect of mitochondrial swelling on the accumulation of [Dmt^1, AtnDap^4]DALDA in mitochondria by using alamethicin to induce swelling and rupture of the outer membrane. […] Thus, [Dmt^1]DALDA is associated with mitochondrial membranes.

[6] = Estimated concentration in isolated perfused guinea pig hearts; conditions: coronary perfusate 0.1 μM
[7] = test system: isolated mouse liver mitochondria; test: Mitochondrial respiration (oxygen consumption); assay type: biochemical; conditions: 100 μM
[8] = test system: mitochondrial permeability transition (MPT) in isolated mitochondria; test: Mitochondrial membrane potential and MPT measured with TMRM; assay type: biochemical, mouse; conditions: for mitochondrial potential / MPT on addition of peptide alone: 200 μM, TMRM; for tolerance of mitochondria to cumulative Ca2+ additions prior to MPT: 50 and 100 μM
Method: In addition to having no direct effect on mitochondrial potential, [Dmt^1]DALDA was able to protect against MPT induced by Ca^2+ overload.
3-Nitropropionic acid (3NP) is an irreversible inhibitor of succinate dehydrogenase in complex II of the electron transport chain. Addition of 3NP (1 mM) to isolated mitochondria caused dissipation of mitochondrial potential and onset of MPT (FIG. 2C).

[9] = test system: Caco-2 cells; test: 3NP-induced mitochondrial depolarization in cells (TMRM, LSCM); assay type: cell-based, human; conditions: 3NP 10 mM, peptide 0.1 μM, 4 h
Source text: In control cells, the mitochondria are clearly visualized as fine streaks throughout the cytoplasm.

[10] = test system: isolated mitochondria; test: Mitochondrial swelling (absorbance 540 nm or light scattering 570 nm); assay type: biochemical, mouse
Method: (§2) MPT pore opening results in mitochondrial swelling. We examined the effects of [Dmt^1]DALDA on mitochondrial swelling by measuring reduction in absorbance at 540 nm (A540). The mitochondrial suspension was then centrifuged and cytochrome c in the mitochondrial pellet and supernatant determined by a commercially-available ELISA kit.
(§3) The methods for study are as described above for SS-02. In this example, mitochondrial swelling was measured using light scattering monitored at 570 nm.

[11] = test system: isolated mitochondria; test: Cytochrome c release from isolated mitochondria (ELISA); assay type: biochemical, mouse; conditions: Ca2+ overload
Method: as §2, §3

[12] = test system: isolated perfused guinea pig heart; test: Ischemia-reperfusion myocardial stunning in isolated perfused heart (Langendorff); conditions: 100 nM, 30 min global ischemia
Method: Guinea pig hearts were rapidly isolated, and the aorta was cannulated in situ and perfused in a retrograde fashion with an oxygenated Krebs-Henseleit solution (pH 7.4) at 34° C. The heart was then excised, mounted on a modified Langendorff perfusion apparatus, and perfused at constant pressure (40 cm H2O). Contractile force was measured with a small hook inserted into the apex of the left ventricle and the silk ligature tightly connected to a force-displacement transducer. Coronary flow was measured by timed collection of pulmonary artery effluent.
Reperfusion was carried out with the same solution used prior to ischemia.

[13] = test system: isolated guinea pig hearts; test: Organ preservation: peptide in cardioplegic solution, prolonged ischemia of isolated heart; conditions: in St. Thomas cardioplegic solution 3 min, 90 min ischemia, 60 min reperfusion; listed as [Dmt^1]DALDA
Method: We examined whether [Dmt^1]DALDA prolongs survival of organs. In this study, [Dmt^1]DALDA was added to a commonly used cardioplegic solution (St. Thomas) to determine whether [[Dmt^1]DALDA enhances survival of the heart after prolonged ischemia (model of ex vivo organ survival).
Isolated guinea pig hearts were perfused in a retrograde fashion with an oxygenated Krebs-Henseleit solution at 34° C. After 30 min. of stabilization, the hearts were perfused with a cardioplegic solution CPS (St. Tohomas) with or without [Dmt^1]DALDA at 100 nM for 3 min. Global ischemia was then induced by complete interruption of coronary perfusion for 90 min. Reperfusion was subsequently carried out for 60 min. with oxygenated Krebs-Henseleit solution. Contractile force, heart rate and coronary flow were monitored continuously throughout the experiment.

[14] = test system: several mammalian cell types; conditions: energy-independent manner; cited from earlier work

Q: Which results are given for “2′,6′-dimethyltyrosine-D-Arg-Phe-Lys-NH2 [SS-02]”?
A: time at which [3H][Dmt1]DALDA was first observed in cell lysate ([1]; 250 nM, Caco-2): 5 min; time to steady state levels in cell lysate ([1]; 250 nM, Caco-2): ≤ 30 min; total amount recovered in the cell lysate, of the total drug ([1]; after 1 h incubation): about 1%; uptake at 4° C. compared to 37° C. ([1]; by 45 min): 76.5%; uptake at 4° C. compared to 37° C. ([1]; by 1 h): 86.3%; internalization [2]: observed; internalization [3]: observed; internalization [4]: observed; decrease of radioactivity associated with mitochondrial pellet by FCCP ([5]; 37° C., 2 min): ~20%; amount of radioactivity in the pellet over time ([5]; from 2 min to 8 min): did not change; Concentration of [Dmt1]DALDA in mitochondria [6]: 1000 µM; Concentration of [Dmt1]DALDA in myocyte [6]: 5 µM; oxygen consumption during state 3 or state 4 [7]: did not alter; mitochondrial potential / MPT on addition of peptide alone [8]: did not alter mitochondrial potential; mitochondrial potential / MPT on addition of peptide alone ([8]; listed as [Dmt^1]DALDA): did not cause mitochondrial depolarization or MPT; onset of MPT induced by 3NP ([8]; 1 mM 3NP, 0.5, 5, 50 μM peptide): dose-dependently delayed; tolerance of mitochondria to cumulative Ca2+ additions prior to MPT [8]: increased mitochondrial tolerance; tolerance of mitochondria to cumulative Ca2+ additions prior to MPT ([8]; listed as [Dmt^1]DALDA): dose-dependently increased; MPT induced by Ca2+ overload ([8]; pretreatment 10 μM): prevented onset of MPT; mitochondrial depolarization caused by 3NP in cells [9]: protected against mitochondrial depolarization; mitochondrial swelling induced by Ca2+ ([10]; 200 μM Ca2+, absorbance at 540 nm): inhibited swelling; also recorded: dose dependently inhibited; mitochondrial swelling induced by MPP+ ([10]; MPP+ 300 μM): prevented mitochondrial swelling; also recorded: inhibited mitochondrial swelling; Ca2+-induced release of cytochrome c [11]: inhibited; myocardial contractile force during ischemia-reperfusion [12]: tolerated ischemia much better than buffer-treated hearts; also recorded: protects myocardial contractile force; contractile function after prolonged ischemia [13]: significantly enhanced; also recorded: significantly improved; penetration of the plasma membrane [14]: readily penetrates the plasma membrane
